Entries after “also recorded” stand apart in the source; their conditions may differ. Marks after values point to notes of the source that are not given here.
How the values were obtained:
MDA-MB-231 cells [1] = test: cells; type: cell-based, human
Protocol: (§1) Human breast carcinoma cell line, MDA-MB-231, was obtained from the American Type Culture Collection (ATCC HTB-26; Bethesda, Md.). MDA-MB-231 cells were grown in RPMI 1640 medium supplemented with 10% bovine calf serum (Hyclone, Road Logan, Utah). Wild-type Chinese Hamster Ovary cells (CHO-10001) (7), colchicine- and vinblastine-resistant (CHO-VV 3-2) (8) and taxol-resistant (CHO-TAX 5-6) cells (9) were generously provided by Dr. Fernando Cabral (University of Texas Medical School, Houston, Tex.). These cells were cultured in RPMI 1640 containing 10% fetal bovine serum. SK—N—SH human neuroblastoma cells, (ATCC HTB-11; Bethesda, Md.) were cultured in MEM medium supplemented with 2 mM L-glutamine, 1.5 g/liter sodium bicarbonate, 0.1 mM non-essential amino acids, 1 mM sodium pyruvate and 10% fetal bovine serum. Cells were cultured in a humidified atmosphere at 37° C. in 5% CO2.
(§2) Cytotoxicity was assessed using the MTT assay (3-(4,5-dimethylthiazol-2-yl)-2,5-diphenyltetrazolium bromide) as described by Carmichael et al. (12).

β-tubulin [2] = test: Separation of soluble and polymerized tubulins, Western blot of β-tubulin; type: cell-based, human; details: MDA-MB-231 cells, 30 μM, 24 h and 48 h; for formation of modified β-tubulin (second immunoreactive band of lower Mr): free tubulin fraction
Protocol: FIG. 2. Effects of CEU derivatives on microtubule depolymerization. Exponentially growing MDA-MB-231 cells were incubated in the absence or the presence of 30 μM of CEU derivatives including (A) 4-tBCEU, 4-iPCEU or 4-sBCEU for 24 and 48 h respectively; (B) 2-ECEU, 3-ECEU or 4-ECEU for 24 and 48 h; and (C) 4-tBEU, 4-iPEU, 4-sBEU, 4-tBCPU, CEU or 4-methoxyCEU for 48 h. Free tubulin and microtubule fractions were isolated and analyzed by Western blot. Data are representative of three different experiments.
Separation of soluble and polymerized tubulins from MDA-MB231 cells was carried out as described by Minotti et al. (14) with minor modifications. Briefly, after drug exposure, about 5×10^6 cells in 100-mm petri dishes were washed with PBS at 37° C. and harvested in 3 ml of PBS containing 0.4 μg/ml of taxol using a rubber policeman.
Cells were centrifuged and lysed using 250 μl of microtubule-stabilizing buffer (20 mM Tris-HCl, pH 6.8, 140 mM NaCl, 1 mM MgCl2, 2 mM EDTA, 0.5% Nonidet P-40 and 0.4 μg/ml taxol), and then transferred to 1.5 ml microcentrifuge tubes. Samples were centrifuged at 12,000×g for 10 min at 4° C. and the supernatants containing soluble tubulin were placed in separate microcentrifuge tubes containing 250 μl of 2× Laemmli sample buffer (15). Pellets containing the polymerized tubulin were resuspended in 250 μl of water, followed by two freeze/thawing cycles, and the addition of 250 μl of 2× Laemmli sample buffer. Samples were analyzed by SDS-PAGE and immunoassay was performed as described below.
(§3) Samples (1×10^5 cells) were analyzed by 10% SDS-PAGE using the Laemmli system (15). Membranes were then incubated with PBSMT (PBS, pH 7.4, 5% fat-free dry milk and 0.1% Tween-20) for 1 h at room temperature, and then with 1:500 monoclonal anti-β-tubulin (clone TUB 2.1, Sigma) or 1:400 anti (clone no. SDL.3D10, Sigma) for 1 h. […] Membranes were washed with PBSMT and incubated with 1:2500 peroxidase-conjugated anti-mouse immunoglobulin (Amersham Canada, Oakville, Canada) in PBSMT for 30 min. Detection of the immunoblot was carried out with the ECL Western blotting detection reagent kit (Amersham Canada, Oakville, Canada).

[3] = Kinetics of alkylation of 4-(4-nitrobenzyl)pyridine (colorimetric assay); type: physicochemical; details: 80° C., pH 4.3, absorbance at 570 nm, linear regression, mean ± SD
Protocol: The rate constant of alkylation (K′) of CEU derivatives and chlorambucil was evaluated by a […] assay as described by Bardos et al (13). Briefly, 1 ml of a 10% (v/v) solution of 4-(4-nitrobenzyl)pyridine in ethanol and 1 ml of 50 mM sodium acetate (pH 4.3) were added to an ethanol solution (95%) containing 400 nmol per ml of either chlorambucil or CEU and heated to 80° C. in a shaking water bath for 60, 90, 120 or 150 min. The reaction was stopped by cooling the mixtures on ice for 5 min. Then, 1.5 ml of 0.1 M KOH: ethanol (1:2, v/v) were added to the reaction mixture. Samples were vortexed for 12 sec and set aside for 2.5 min prior to reading the absorbance at 570 nm. The values were compared with those obtained using a blank sample containing all reagents except the alkylating agent.

MDA-MB-231 cells [4] = test: Cell cycle analysis by propidium iodide flow cytometry; type: cell-based, human; details: CEU derivatives at 30 μM, 24 h; flow cytometry
Protocol: FIG. 1. Effect of CEU derivatives on cell cycle. Exponentially growing MDA-MB-231 cells were incubated in the absence or presence of 30 μM of either 4-tBCEU, 4-iPCEU or 4-sBCEU for 24 and 48 h, respectively, at 37° C. The cell cycle was evaluated using propidium iodide staining and flow cytometric analysis. Data are representative of three independent experiments.
Following incubation of MDA-MB-231 cells with 4-tBCEU, 4-iPCEU or 4-sBCEU, the cells were harvested, resuspended in 1 ml PBS and fixed by the addition of 2.4 ml of ice cold anhydrous ethanol. Then, 5×10^5 cells from each sample were centrifuged for 3 min at 1000×g. Cell pellets were resuspended in PBS containing 50 μg/ml of PI and 40 U/ml of ribonuclease A (Boehringer Mannheim, Laval, Calif.). Mixtures were incubated at room temperature for 30 min and cell cycle distribution was analyzed using an Epics Elite ESP flow cytometer (Coulter Corporation, Miami, Fla., USA).
The effect of CEU, namely 4-tBCEU, 4-PCEU and 4-sBCEU, on the cell cycle was analyzed. To this end, exponentially growing MDA-MB-231 cells were treated with 30 μM 4-tBCEU, 4-iPCEU or 4-sBCEU for 24 or 48 h followed by an evaluation of cell cycle distribution by flow cytometry using propidium iodide, a fluorescent DNA dye. […] Induction of mitosis blockage in prophase by CEU derivatives was confirmed by mitotic index analysis as described by Drouin (22).

[5] = tested on: CHO 10001 cells (wild-type); test: MTT cytotoxicity on wild-type CHO cells; type: cell-based, Chinese hamster; details: Cricetulus griseus, CHO10001; wild-type CHO cells, 120 h, MTT, mean ± SD; read-out: IC50 CHO 10001
Protocol: as §1, with “Wild-type Chinese Hamster Ovary cells (CHO-10001) (7), colchicine- and vinblastine-resistant (CHO-VV 3-2) (8) and taxol-resistant (CHO-TAX 5-6) cells (9) were generously provided by Dr. Fernando Cabral (University of Texas Medical School, Houston, Tex.).” left out
as §2
(§4) The cytotoxicity of 4-tBCEU, 4-iPCEU and 4-sBCEU in two CHO cell lines having differential sensitivity to antmicrotubule agents was evaluated. These cell lines are derived from parental CHO-10001 cells and express mutated tubulins.

CHO TAX 5-6 cells = test: MTT cytotoxicity on taxol-resistant CHO cells expressing mutated tubulin; type: cell-based, Chinese hamster; details: Cricetulus griseus, CHO-TAX 5-6; taxol-resistant CHO cells, 120 h, MTT, mean ± SD; read-out: IC50 CHO TAX 5-6
Protocol: as §1, with “Wild-type Chinese Hamster Ovary cells (CHO-10001) (7), colchicine- and vinblastine-resistant (CHO-VV 3-2) (8) and taxol-resistant (CHO-TAX 5-6) cells (9) were generously provided by Dr. Fernando Cabral (University of Texas Medical School, Houston, Tex.).” left out
as §2, §4

β-tubulin [6] = test: Competition with antimicrotubule agents for the site of β-tubulin alkylation; type: cell-based, human; details: for effect of competitor on formation of modified β-tubulin induced by CEU: MDA-MB-231 cells, 48 h, 30 μM CEU with 5 μM taxol, colchicine or vinblastine or 100 μM iodoacetamide
Protocol: FIG. 6. Identification of the site of alkylation of β-tubulin by CEU: competition with antimicrotubule agents. […] Data are representative of three different experiments.
as §3
The latter agents were used because they have well defined binding sites on β-tubulin (24-28) and because they were expected to inhibit alkylation by CEU if they shared a common binding site. […] These putative alkylation sites are two nucleophilic mercapto groups of cysteine residues at positions 239 and 354, respectively (25). To assess the possible alkylation of these mercapto residues by CEU, MDA-MB-231 cells were treated with 4-tBCEU in the presence of iodoacetamide, a specific thiol alkylating agent (31, 32). […] Similar experiments were carried out using EBI, a bifunctional alkylating agent that specifically induces cross-linking between Cys239 and Cys354 of β-tubulin (32).

CHO VV 3-2 cells = test: MTT cytotoxicity on vinblastine- and colchicine-resistant CHO cells expressing mutated tubulin; type: cell-based, Chinese hamster; details: Cricetulus griseus, CHO-VV 3-2; vinblastine- and colchicine-resistant CHO cells, 120 h, MTT, mean ± SD; read-out: IC50 CHO VV 3-2
Protocol: as §1, with “Wild-type Chinese Hamster Ovary cells (CHO-10001) (7), colchicine- and vinblastine-resistant (CHO-VV 3-2) (8) and taxol-resistant (CHO-TAX 5-6) cells (9) were generously provided by Dr. Fernando Cabral (University of Texas Medical School, Houston, Tex.).” left out
as §2, §4

4-sec-butyl[3-(ethyl)ureido]benzene [Example 4-sBEU]
cytotoxicity in words (active / inactive CEU) (MDA-MB-231 cells [1]): inactive
microtubule depolymerization (β-tubulin [2]): no depolymerization
formation of modified β-tubulin (second immunoreactive band of lower Mr) (β-tubulin [2]): no effect on β-tubulin

4-tert-butyl[3-(2-chloropropyl)ureido]benzene [Example 4-tBCPU]
cytotoxicity in words (active / inactive CEU) (MDA-MB-231 cells [1]): inactive
microtubule depolymerization (β-tubulin [2]): inactive

O=C(O)CCCc1ccc(N(CCCl)CCCl)cc1 [CBL, Chlorambucil, reference compound]
IC50 (MDA-MB-231 cells [1]; Homo sapiens, MDA-MB-231, read-out: IC50 (μM) MDA-MB-231): 9.3 ± 3.5 µM
K′ (constant of alkylation of 4-(4-nitrobenzyl)pyridine) [3]: 38.9 ± 5.1^a

O=C(NCCCl)Nc1ccccc1 [CEU]
cytotoxicity in words (active / inactive CEU) (MDA-MB-231 cells [1]): inactive
microtubule depolymerization (β-tubulin [2]): inactive

COc1cc2c(c(OC)c1OC)-c1ccc(OC)c(=O)cc1[C@@H](NC(C)=O)CC2 [Colchicine, reference compound]
accumulation of cells in G2+M (MDA-MB-231 cells [4]): G2+M block

CCc1ccccc1NC(=O)NCCCl [Example 2-ECEU, 2-ethyl[3-(2-chloroethyl)ureido]benzene]
cytotoxicity in words (active / inactive CEU) (MDA-MB-231 cells [1]): inactive
microtubule depolymerization (β-tubulin [2]): no depolymerization
formation of modified β-tubulin (second immunoreactive band of lower Mr) (β-tubulin [2]): no effect on β-tubulin

CCc1cccc(NC(=O)NCCCl)c1 [Example 3-ECEU, 3ethyl[3-(2-chloroethyl)ureido]benzene]
microtubule depolymerization (β-tubulin [2]): delayed in time
formation of modified β-tubulin (second immunoreactive band of lower Mr) (β-tubulin [2]): delayed in time

CCc1ccc(NC(=O)NCCCl)cc1 [Example 4-ECEU, 4-ethyl(3-(2-chloroethyl)ureido]benzene]
microtubule depolymerization (β-tubulin [2]): delayed in time
formation of modified β-tubulin (second immunoreactive band of lower Mr) (β-tubulin [2]): delayed in time

CCNC(=O)Nc1ccc(C(C)C)cc1 [Example 4-iPEU, 4-iso-propyl[3-(ethyl)ureido]benzene]
microtubule depolymerization (β-tubulin [2]): no depolymerization
formation of modified β-tubulin (second immunoreactive band of lower Mr) (β-tubulin [2]): no effect on β-tubulin

COc1ccc(NC(=O)NCCCl)cc1 [Example 4-methoxyCEU, 4-methoxy[3-(2-chloroethyl)ureido]benzene]
microtubule depolymerization (β-tubulin [2]): inactive

CCNC(=O)Nc1ccc(C(C)(C)C)cc1 [Example 4-tBEU, 4-tert-butyl[3-(ethyl)ureido]benzene]
microtubule depolymerization (β-tubulin [2]): no depolymerization
formation of modified β-tubulin (second immunoreactive band of lower Mr) (β-tubulin [2]): no effect on β-tubulin

CC(=O)O[C@H]1C(=O)[C@@]2(C)[C@H]([C@H](OC(=O)c3ccccc3)[C@]3(O)C[C@H](OC(=O)[C@H](O)[C@@H](NC(=O)c4ccccc4)c4ccccc4)C(C)=C1C3(C)C)[C@]1(OC(C)=O)CO[C@@H]1C[C@@H]2O [Taxol, reference compound]
IC50 [5]: 1.7 ± 0.3 µM
IC50 (CHO TAX 5-6 cells): 6.1 µM
formation of modified β-tubulin (second immunoreactive band of lower Mr) (β-tubulin [2]): no such band
effect of competitor on formation of modified β-tubulin induced by CEU (β-tubulin [6]): abrogated the formation of modified β-tubulin
IC50 (CHO VV 3-2 cells): 1.1 ± 0.2 µM

CC[C@]1(O)C[C@@H]2CN(CCc3c([nH]c4ccccc34)[C@@](C(=O)OC)(c3cc4c(cc3OC)N(C)[C@H]3[C@@](O)(C(=O)OC)[C@H](OC(C)=O)[C@]5(CC)C=CCN6CC[C@]43[C@@H]65)C2)C1 [Vinblastine, reference compound]
IC50 [5]: 0.03 ± 0.003 µM
IC50 (CHO TAX 5-6 cells): 0.021 ± 0.003 µM
formation of modified β-tubulin (second immunoreactive band of lower Mr) (β-tubulin [2]): no such band
accumulation of cells in G2+M (MDA-MB-231 cells [4]): G2+M block
effect of competitor on formation of modified β-tubulin induced by CEU (β-tubulin [6]): but not vinblastine, prevented formation of the additional β-tubulin band; also recorded: but not vinblastine, prevented the formation of modified β-tubulin
IC50 (CHO VV 3-2 cells): 0.094 ± 0.003 µM

NC(=O)CI [iodoacetamide]
effect of pre-treatment on β-tubulin alteration induced by EBI (β-tubulin [6]; 24 h with 5 μM colchicine, 5 μM vinblastine or 100 μM iodoacetamide, then 100 μM EBI for 2 h): abrogated
effect of competitor on formation of modified β-tubulin induced by CEU (β-tubulin [6]): completely prevented β-tubulin alkylation by 4-tBCEU

— US20050250853A1, “Beta-tubulin inhibitors” (priority 1999, published 2005)
